{"source": "patent US20070027175A1", "about": "“Antineoplastic activities of ellipticine and its derivatives” (priority 2005, published 2007)", "key": {"[1]": {"tested_on": "myeloma cells", "assay": "Velcade sensitivity of myeloma cells without and with stromal co-culture", "type": "cell-based, human", "text": "The bone marrow microenvironment augments myelomagenesis and can protect myeloma cells from destruction when patients undergo systemic and supportive therapies. In vitro, via direct cell-cell adhesion or soluble factors generated by […] interactions, myeloma cells are reportedly well protected from chemotherapeutic agents (Nefedova et al., 2001)."}, "[2]": {"tested_on": "myeloma cell lines ARK, KMS11, RPMI 8226, and U266", "assay": "In vitro screening of DTP compounds on myeloma cell lines (CellTiter-Glo)", "type": "cell-based, human", "parameters": "effect on myeloma cell growth among tested ellipticine derivatives: dose or concentration left out as unconfirmed", "method": "Eight myeloma cell lines were contacted with the antineoplastic agents to be tested in ninety six well culture plates. […]\nMyeloma cell lines were maintained at >90% viability at 37° C. and 5% CO2. Cells were diluted to 20,000 cells/ml in fresh medium. A 50-μl aliquot of cell suspension was seeded in 96-well tissue culture plates to final cell counts of 1,000 cells/well. All compounds obtained from NCI's Developmental Therapeutics Program (DTP compounds) were dissolved in 100% dimethylsulfoxide (DMSO) (Sigma-Aldrich, St. Louis, Mo.) at 1 mg/ml and further diluted in fresh medium to 1 μg/ml. Each compound (50-μl aliquots) was distributed to a well containing 1,000 myeloma cells. Each plate included controls with addition of only medium or only DMSO (0.5% final concentration). All experiments were conducted in triplicate.\nUsing CellTiter-Glo Luminescent Assay kit (Promega, Madison, Wis.) according to manufacturer's instructions, cell viability was assayed every 24 hours after addition of DTP compound for 5 days. Briefly, the CellTiter-Glo substrate was dissolved in buffer, and 100 μl was added to each well. […] The statistic sampling distribution for each compound per cell line was based on sample of n=15 measurements.\nOther ellipticine derivatives from the DTP (at 0.5 mM final concentration) were used to screen the same four myeloma cell lines."}, "[3]": {"tested_on": "U266 myeloma cell line", "parameters": "cell viability (CellTiter-Glo luminescent assay): dose or concentration left out as unconfirmed", "conditions": "for cell viability (CellTiter-Glo luminescent assay): U266", "method": "The dosage of each derivative was set at 2, 0.2 and 0.02 mM. A cell culture medium control and 0.5% DMSO control was maintained in each experiment. The cell viability was tested each day over a period of five days using the CellTiter-Glo luminescent cell viability assay kit from Promega Co.\nU266 cell line was one of 12 myeloma cell lines used in screening of anti-myeloma agents. In FIG. 10A, cells were treated with 14 ellipticine derivatives (0.5 mM) obtained from the DTP; control cells were untreated. Ellipticine derivatives are coded with NSC identifiers. For 5 days, cell viability was measured every 24 hours using CellTiter-Glo Luminescent Assay. […] In FIG. 10B, U266 cells, along with six other myeloma cell lines, were co-cultured in direct contact with human fetal bone mesenchymal cells and treated with EPED3 (0.5 mM and 2 mM) or Velcade (0.5 mM); control cells were untreated. Cell proliferation was assessed by MTT assay every 24 hours for 5 days. […] Error bars indicate standard deviation.\nCell Titer-Glo luminescent cell viability assay kit from Promega Co (Madison, Wis.) was used to determine cell growth inhibition by the various compounds tested. The kit determines cell viability by quantifying the amount of ATP present in the cell culture medium. Presence of ATP signals the presence of metabolically active cells (3). The intensity of luminescence was measured by a computerized luminometer (Promega, Co. Madison, Wis.). Each well was read five times within 30 minutes of adding Cell Titer-Glo reagent mixture.\nCells were contacted with the antineoplastic agents in ninety six well culture plates. The concentration of each neoplastic agent was maintained a constant. A cell culture medium control and 0.5% DMSO control were maintained in each set of experiments. The cell viability was tested every day using the CellTiter-Glo luminescent cell viability kit from Promega Co. (Madison, Wis.) for a period of five days."}, "[4]": {"tested_on": "myeloma cell lines (JJN3, L363, OCI-MY5, and U266)", "assay": "MTT comparison with clinical anti-myeloma agents, four cell lines", "type": "cell-based, human", "conditions": "24 and 48 hours", "method": "Myeloma cells were suspended in fresh medium at […] and seeded into 96-well plates in 50-μl aliquots (10,000 cells/well). After treating cells in each well with the appropriate compound (50-μl aliquots of 2× stock solution) and medium control, the methylthiazolyldiphenyl-tetrazolium bromide (MTT) assay kit (Promega, Madison, Wis.) was used to determine cell proliferation, according to manufacturer's instructions. Briefly, dye solution was added to each well (15 μl/well) and incubated for 4 hours at 37° C. and 5% CO2; 100 μl of the solubilization solution/stop mix was then added. The plates were read at 570 nm in a plate reader, and the A570 nm values were corrected by A650 nm. All experiments were conducted in triplicate.\nIn vitro comparison of EPED3 to ellipticine and four anti-myeloma agents commonly used in clinical treatment regimens was carried out with four myeloma cell lines (JJN3, L363, OCI-MY5, and U266). EPED3, ellipticine, Dox, dexamethasome, VP-16-213, and Velcade were applied in a two-fold dilution series ranging from 0.1 to 6.4 μM. Cell proliferation was assessed using MTT assays 24 and 48 hours after initiating treatments."}}, "note": "“Also recorded” adds a separate entry of the source. Where two headings read alike, the source gives them in different places."}
{"smiles": "CC(C)C[C@H](NC(=O)[C@H](Cc1ccccc1)NC(=O)c1cnccn1)B(O)O", "note": "[Velcade, bortezomib, reference compound]", "values": [{"measurement": "effective low dose", "setting": "[1]; absence of stromal cells", "value": 4, "unit": "nM"}, {"measurement": "reduction in sensitivity", "setting": "[1]; co-culture versus absence of stromal cells, data not shown", "value": "more than 100 fold"}, {"measurement": "tolerance of myeloma cells to Velcade", "setting": "[1]; co-culture with human fetal bone mesenchymal cells, data not shown", "value": "up to 500 nM"}]}
{"smiles": "Cc1c2ccncc2c(C)c2c1[nH]c1ccc(OCCN(C)C)cc12", "note": "[NSC 338258, ellipticine, 9-dimethyl amino-ethoxy-]", "values": [{"measurement": "inhibition of cell viability in four myeloma cell lines", "setting": "[2]; 0.5 mg/ml, every 24 hours over 5 days", "value": "most significantly inhibited cell viability; also recorded: significant anti-myeloma effect"}, {"measurement": "effect on myeloma cell growth among tested ellipticine derivatives", "setting": "[2]; four myeloma cell lines", "value": "best among the tested ellipticine derivatives"}, {"measurement": "effective invitro dosage (cell growth inhibition)", "setting": "[2]; myeloma cell lines", "value": 0.2, "unit": "µM"}, {"measurement": "cytotoxic activity on U266 cells", "setting": "[3]", "value": "drastic cytotoxic activity"}, {"measurement": "cell viability (CellTiter-Glo luminescent assay)", "setting": "[3]; 0.02, Day 1", "value": "26,346"}, {"measurement": "cell viability (CellTiter-Glo luminescent assay)", "setting": "[3]; 0.02, Day 2", "value": "37,946"}, {"measurement": "cell viability (CellTiter-Glo luminescent assay)", "setting": "[3]; 0.02, Day 3", "value": "43,097"}, {"measurement": "cell viability (CellTiter-Glo luminescent assay)", "setting": "[3]; 0.02, Day 4", "value": "74,106"}, {"measurement": "cell viability (CellTiter-Glo luminescent assay)", "setting": "[3]; 0.02, Day 5", "value": "86,287"}, {"measurement": "cell viability (CellTiter-Glo luminescent assay)", "setting": "[3]; 0.2, Day 1", "value": "5,906"}, {"measurement": "cell viability (CellTiter-Glo luminescent assay)", "setting": "[3]; 0.2, Day 2", "value": "1,414"}, {"measurement": "cell viability (CellTiter-Glo luminescent assay)", "setting": "[3]; 0.2, Day 3", "value": 515}, {"measurement": "cell viability (CellTiter-Glo luminescent assay)", "setting": "[3]; 0.2, Day 4", "value": 291}, {"measurement": "cell viability (CellTiter-Glo luminescent assay)", "setting": "[3]; 0.2, Day 5", "value": 101}, {"measurement": "cell viability (CellTiter-Glo luminescent assay)", "setting": "[3]; 2, Day 1", "value": "2,559"}, {"measurement": "cell viability (CellTiter-Glo luminescent assay)", "setting": "[3]; 2, Day 2", "value": 691}, {"measurement": "cell viability (CellTiter-Glo luminescent assay)", "setting": "[3]; 2, Day 3", "value": 172}, {"measurement": "cell viability (CellTiter-Glo luminescent assay)", "setting": "[3]; 2, Day 4", "value": 183}, {"measurement": "cell viability (CellTiter-Glo luminescent assay)", "setting": "[3]; 2, Day 5", "value": 104}, {"measurement": "concentration at which cell viability is inhibited as effectively as Velcade", "setting": "[4]", "value": 0.4, "unit": "µM"}]}
